The structures appear in SMILES notation.

One assay concerns HepG2 cells. As to the kind of experiment: Quantification of the secretion of ApoB. Type of assay: cell-based. The settings on record: Homo sapiens, HepG2, 24 h, 24 hours of incubation, pIC50 = -log IC50. As to the method:
HepG2 cells were cultured in 24-well plates in MEM Rega 3 containing 10% fetal calf serum. At 70% confluency, the medium was changed and the test compound or carrier (DMSO, 0.4% final concentration) was added. After 24 hours of incubation, the medium was transferred to Eppendorf tubes and cleared by centrifugation. A sheep antibody directed against either apoB was added to the supernatant and the mixture was kept at 8° C. for 24 hours. Then, rabbit anti-sheep antibody was added and the immune complex was allowed to precipitate for 24 hours at 8° C. The immunoprecipitate was pelleted by centrifugation for 25 minutes at 1320 g and washed twice with a buffer containing 40 mM Mops, 40 mM NaH2PO4, 100 mM NaF, 0.2 mM DTT, 5 mM EDTA, 5 mM EGTA, 1% Triton-X-100, 0.5% sodium deoxycholate (DOC), 0.1% SDS, 0.2 μM leupeptin and 0.2 μM PMSF. Radioactivity in the pellet was quantified by liquid scintillation counting. The IC50 values are usually converted to pIC50 values (=−log IC50 value) for ease of use.
`COc1ccccc1C(=O)NC1CCN(C(=O)[C@H]2CC[C@@](C(=O)N[C@@H](CC(=O)OC(C)(C)C)C(=O)OC(C)(C)C)(c3ccccc3)c3ccccc32)CC1` [Co. No. 106]: the half-inhibitory concentration (IC50) is 185 nM.

The compound `COc1ccccc1C(=O)NC1CCN(C(=O)[C@H]2CC[C@@](C(=O)N[C@@H](CCC(N)=O)C(=O)OC(C)(C)C)(c3ccccc3)c3ccccc32)CC1` [Co. No. 107] had an IC50 of over 1000 nM.

As to `COc1ccccc1C(=O)NC1CCN(C(=O)[C@H]2CC[C@@](C(=O)N[C@@H](CCC(=O)OC(C)(C)C)C(=O)OC(C)(C)C)(c3ccccc3)c3ccccc32)CC1` [Co. No. 108], the half-maximal inhibitory concentration (IC50) was 74.8 nM.

`COc1ccccc1C(=O)NC1CCN(C(=O)[C@H]2CC[C@@](C(=O)N[C@@H](CCCCNC(=O)OC(C)(C)C)C(=O)OC(C)(C)C)(c3ccccc3)c3ccccc32)CC1` [Co. No. 109]: the concentration for half-maximal inhibition (IC50) was 2.77 nM.

In turn, `COc1ccccc1C(=O)NC1CCN(C(=O)[C@H]2CC[C@@](C(=O)N3CCC[C@H]3C(=O)OC(C)(C)C)(c3ccccc3)c3ccccc32)CC1` [Co. No. 110] showed an IC50 of 245 nM.

Regarding `COc1ccccc1C(=O)NC1CCN(C(=O)[C@H]2CC[C@@](C(=O)N[C@@H](Cc3ccccc3)C(=O)OC(C)(C)C)(c3ccccc3)c3ccccc32)CC1` [Co. No. 112], the half-inhibitory concentration (IC50) is 136 nM.

The compound `COc1ccccc1C(=O)NC1CCN(C(=O)[C@H]2CC[C@@](C(=O)N[C@@H](CC(=O)O)C(=O)O)(c3ccccc3)c3ccccc32)CC1` [Co. No. 121] showed a 50% inhibitory concentration (IC50) of over 1000 nM.

Take `CCOC(=O)CCNC(=O)[C@@]1(c2ccccc2)CC[C@H](C(=O)N2CCC(NC(=O)c3ccccc3OC)CC2)c2ccccc21` [Co. No. 129]: the IC50 was 4.36 nM.

Turning to `COC(=O)CCNC(=O)[C@@]1(c2ccccc2)CC[C@H](C(=O)N2CCC(NC(=O)c3cccn(C)c3=O)CC2)c2ccccc21` [Co. No. 138], the half-maximal inhibitory concentration (IC50) was over 1000 nM.

In turn, `COC(=O)[C@H](CCCCNC(=O)OC(C)(C)C)NC(=O)[C@@]1(c2ccccc2)CC[C@H](C(=O)N2CCC(NC(=O)c3cccn(C)c3=O)CC2)c2ccccc21` [Co. No. 148] had a 50% inhibitory concentration (IC50) of over 1000 nM.

For `CCOC(=O)CCNC(=O)[C@@]1(c2ccccc2)CC[C@H](C(=O)N2CCC(NC(=O)c3cccn(C)c3=O)CC2)c2ccccc21` [Co. No. 159], the 50% inhibitory concentration (IC50) was over 1000 nM.

Compound `Cn1cccc(C(=O)NC2CCN(C(=O)[C@H]3CC[C@@](C(=O)NCCC(=O)OC(C)(C)C)(c4ccccc4)c4ccccc43)CC2)c1=O` [Co. No. 164] gave an IC50 of over 1000 nM.

In turn, `Cn1cccc(C(=O)NC2CCN(C(=O)[C@H]3CC[C@@](C(=O)N[C@@H](CCCCNC(=O)OC(C)(C)C)C(=O)OC(C)(C)C)(c4ccccc4)c4ccccc43)CC2)c1=O` [Co. No. 172] had a half-inhibitory concentration (IC50) of over 1000 nM.

As to `COc1ccccc1C(=O)NC1CCN(C(=O)[C@H]2CC[C@@](C(=O)NCCC(=O)OC(C)C)(c3ccccc3)c3ccccc32)CC1` [Co. No. 199], the 50% inhibitory concentration (IC50) is 7.36 nM.

As to `CCOC(=O)CC(C)NC(=O)[C@@]1(c2ccccc2)CC[C@H](C(=O)N2CCC(NC(=O)c3ccccc3OC)CC2)c2ccccc21` (some centres unmarked) [Co. No. 200], the IC50 was 255 nM.

Turning to `COC(=O)CCCNC(=O)[C@@]1(c2ccccc2)CC[C@H](C(=O)N2CCC(NC(=O)c3ccccc3OC)CC2)c2ccccc21` [Co. No. 201], the IC50 was over 1000 nM.

Take `CCOC(=O)CCCNC(=O)[C@@]1(c2ccccc2)CC[C@H](C(=O)N2CCC(NC(=O)c3ccccc3OC)CC2)c2ccccc21` [Co. No. 202]: the IC50 was 793 nM.

In the case of `COc1ccccc1C(=O)NC1CCN(C(=O)[C@H]2CC[C@@](C(=O)NCCCC(=O)OC(C)(C)C)(c3ccccc3)c3ccccc32)CC1` [Co. No. 203], half-maximal inhibition (IC50) was put at 30 nM.

`COC(=O)CCCCNC(=O)[C@@]1(c2ccccc2)CC[C@H](C(=O)N2CCC(NC(=O)c3ccccc3OC)CC2)c2ccccc21` [Co. No. 204] gave an IC50 of over 1000 nM.

In a further assay the target is MTP (Homo sapiens, UniProt P55157). The assay is described as follows: MTP assay (triglyceride transfer from donor to acceptor vesicles). The class given is biochemical. The settings on record: MTP activity, percent triglyceride transfer from donor to acceptor vesicles, 37° C. Put shortly: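 Radiolabelled triglyceride transfer from donor vesicles (phosphatidylcholine, 7.5 mol % cardiolipin, 0.25 mol % glycerol tri[1-^14C]-oleate) to phosphatidylcholine acceptor vesicles with BSA, pH 7.5 Tris buffer; compounds in DMSO (0.13% final), 5 min preincubation at 37° C before MTP addition. Donor vesicles removed on DEAE-52; acceptor-supernatant ^14C counts give percent transfer.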
Chain of MTP (P55157 19-894, species assumed): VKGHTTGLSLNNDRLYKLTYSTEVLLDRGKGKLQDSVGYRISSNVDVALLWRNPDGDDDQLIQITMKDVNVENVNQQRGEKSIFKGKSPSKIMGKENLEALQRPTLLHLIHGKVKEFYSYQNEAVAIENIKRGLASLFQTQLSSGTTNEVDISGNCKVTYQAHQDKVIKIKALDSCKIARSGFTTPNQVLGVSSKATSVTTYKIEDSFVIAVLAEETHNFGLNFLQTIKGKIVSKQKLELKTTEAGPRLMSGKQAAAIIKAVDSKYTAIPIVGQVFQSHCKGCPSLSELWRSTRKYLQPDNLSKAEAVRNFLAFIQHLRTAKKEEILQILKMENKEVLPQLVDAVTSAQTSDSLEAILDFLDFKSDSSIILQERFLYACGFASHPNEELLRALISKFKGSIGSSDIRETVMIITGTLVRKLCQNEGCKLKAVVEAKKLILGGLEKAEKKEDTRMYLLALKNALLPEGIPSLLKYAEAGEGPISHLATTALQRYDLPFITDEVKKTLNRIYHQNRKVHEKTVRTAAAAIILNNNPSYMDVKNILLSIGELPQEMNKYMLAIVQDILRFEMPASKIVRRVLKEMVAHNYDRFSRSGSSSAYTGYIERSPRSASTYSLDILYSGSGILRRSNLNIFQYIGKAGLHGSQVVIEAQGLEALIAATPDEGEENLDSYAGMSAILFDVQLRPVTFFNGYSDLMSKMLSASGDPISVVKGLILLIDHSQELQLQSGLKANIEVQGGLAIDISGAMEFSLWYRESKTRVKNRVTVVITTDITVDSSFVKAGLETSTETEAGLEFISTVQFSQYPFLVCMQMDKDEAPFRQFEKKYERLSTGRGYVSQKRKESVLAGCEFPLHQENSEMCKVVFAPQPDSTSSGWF
Chain of MTP (P07237 18-508 partner, species assumed): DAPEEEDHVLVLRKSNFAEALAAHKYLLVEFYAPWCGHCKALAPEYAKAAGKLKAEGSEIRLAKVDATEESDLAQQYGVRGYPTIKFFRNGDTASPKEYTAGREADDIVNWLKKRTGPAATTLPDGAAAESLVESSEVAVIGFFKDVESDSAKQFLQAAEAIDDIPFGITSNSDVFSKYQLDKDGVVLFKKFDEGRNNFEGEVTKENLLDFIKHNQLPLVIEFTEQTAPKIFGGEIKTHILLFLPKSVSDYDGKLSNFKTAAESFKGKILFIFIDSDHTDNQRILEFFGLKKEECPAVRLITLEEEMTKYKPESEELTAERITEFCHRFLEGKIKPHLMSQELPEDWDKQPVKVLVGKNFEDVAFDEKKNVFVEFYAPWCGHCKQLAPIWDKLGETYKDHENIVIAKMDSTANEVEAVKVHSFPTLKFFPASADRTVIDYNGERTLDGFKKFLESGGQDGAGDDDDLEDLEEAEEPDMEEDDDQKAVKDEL
Compound `COc1ccccc1C(=O)NC1CCN(C(=O)[C@H]2CC[C@@](C(=O)N[C@@H](CC(=O)OC(C)(C)C)C(=O)OC(C)(C)C)(c3ccccc3)c3ccccc32)CC1` [Co. No. 106] had an IC50 of 16.1 nM.

`COc1ccccc1C(=O)NC1CCN(C(=O)[C@H]2CC[C@@](C(=O)N[C@@H](CCC(N)=O)C(=O)OC(C)(C)C)(c3ccccc3)c3ccccc32)CC1` [Co. No. 107]: the IC50 is over 100 nM.

In turn, `COc1ccccc1C(=O)NC1CCN(C(=O)[C@H]2CC[C@@](C(=O)N[C@@H](CCC(=O)OC(C)(C)C)C(=O)OC(C)(C)C)(c3ccccc3)c3ccccc32)CC1` [Co. No. 108] showed a half-maximal inhibitory concentration (IC50) of 9.18 nM.

As to `COc1ccccc1C(=O)NC1CCN(C(=O)[C@H]2CC[C@@](C(=O)N[C@@H](CCCCNC(=O)OC(C)(C)C)C(=O)OC(C)(C)C)(c3ccccc3)c3ccccc32)CC1` [Co. No. 109], the half-inhibitory concentration (IC50) is 2.43 nM.

Compound `COc1ccccc1C(=O)NC1CCN(C(=O)[C@H]2CC[C@@](C(=O)N3CCC[C@H]3C(=O)OC(C)(C)C)(c3ccccc3)c3ccccc32)CC1` [Co. No. 110] showed an IC50 of over 100 nM.

`COc1ccccc1C(=O)NC1CCN(C(=O)[C@H]2CC[C@@](C(=O)N[C@@H](Cc3ccccc3)C(=O)OC(C)(C)C)(c3ccccc3)c3ccccc32)CC1` [Co. No. 112] showed an IC50 of 18 nM.

`COc1ccccc1C(=O)NC1CCN(C(=O)[C@H]2CC[C@@](C(=O)N[C@@H](CC(=O)O)C(=O)O)(c3ccccc3)c3ccccc32)CC1` [Co. No. 121] gave a half-maximal inhibitory concentration (IC50) of over 10000 nM.

`CCOC(=O)CCNC(=O)[C@@]1(c2ccccc2)CC[C@H](C(=O)N2CCC(NC(=O)c3ccccc3OC)CC2)c2ccccc21` [Co. No. 129] gave an IC50 of 1.77 nM.

Consider `COC(=O)CCNC(=O)[C@@]1(c2ccccc2)CC[C@H](C(=O)N2CCC(NC(=O)c3cccn(C)c3=O)CC2)c2ccccc21` [Co. No. 138], for which the IC50 is 596 nM.

As for `COC(=O)[C@H](CCCCNC(=O)OC(C)(C)C)NC(=O)[C@@]1(c2ccccc2)CC[C@H](C(=O)N2CCC(NC(=O)c3cccn(C)c3=O)CC2)c2ccccc21` [Co. No. 148], inhibition was half-maximal at 131 nM (IC50).

As to `CCOC(=O)CCNC(=O)[C@@]1(c2ccccc2)CC[C@H](C(=O)N2CCC(NC(=O)c3cccn(C)c3=O)CC2)c2ccccc21` [Co. No. 159], 129 nM corresponded to half-maximal inhibition (IC50).

The compound `Cn1cccc(C(=O)NC2CCN(C(=O)[C@H]3CC[C@@](C(=O)NCCC(=O)OC(C)(C)C)(c4ccccc4)c4ccccc43)CC2)c1=O` [Co. No. 164] gave an IC50 of 65.2 nM.

As for `Cn1cccc(C(=O)NC2CCN(C(=O)[C@H]3CC[C@@](C(=O)N[C@@H](CCCCNC(=O)OC(C)(C)C)C(=O)OC(C)(C)C)(c4ccccc4)c4ccccc43)CC2)c1=O` [Co. No. 172], the midpoint of inhibition, the IC50, lay at 33.6 nM.

In the case of `COc1ccccc1C(=O)NC1CCN(C(=O)[C@H]2CC[C@@](C(=O)NCCC(=O)OC(C)C)(c3ccccc3)c3ccccc32)CC1` [Co. No. 199], 1.32 nM corresponded to half-maximal inhibition (IC50).

As for `CCOC(=O)CC(C)NC(=O)[C@@]1(c2ccccc2)CC[C@H](C(=O)N2CCC(NC(=O)c3ccccc3OC)CC2)c2ccccc21` (some centres unmarked) [Co. No. 200], the half-inhibitory concentration (IC50) is 6.79 nM.

`COC(=O)CCCNC(=O)[C@@]1(c2ccccc2)CC[C@H](C(=O)N2CCC(NC(=O)c3ccccc3OC)CC2)c2ccccc21` [Co. No. 201] gave an IC50 of 7.76 nM.

The compound `CCOC(=O)CCCNC(=O)[C@@]1(c2ccccc2)CC[C@H](C(=O)N2CCC(NC(=O)c3ccccc3OC)CC2)c2ccccc21` [Co. No. 202] showed a half-maximal inhibitory concentration (IC50) of 3.16 nM.

In turn, `COc1ccccc1C(=O)NC1CCN(C(=O)[C@H]2CC[C@@](C(=O)NCCCC(=O)OC(C)(C)C)(c3ccccc3)c3ccccc32)CC1` [Co. No. 203] showed an IC50 of 2.05 nM.

Regarding `COC(=O)CCCCNC(=O)[C@@]1(c2ccccc2)CC[C@H](C(=O)N2CCC(NC(=O)c3ccccc3OC)CC2)c2ccccc21` [Co. No. 204], it took 58.7 nM to reach half-maximal inhibition (IC50).

The values above are taken from US8114880B2, “Piperidine or piperazine substituted tetrahydro-naphthalene-1-carboxylic acid MTP inhibiting compounds” (Janssen Pharmaceutica N.V., priority 2006, dated 2012).
